For one experiment, the target named is Cbl-b (Homo sapiens (Human), UniProt Q13191). Nature of the experiment: Cbl-b LCK Ub TR-FRET assay (Cbl-b Lck HTRF). It is filed as biochemical. Summed up:
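Biotin-Cbl-b preincubated with compound (10-point 3-fold series) 60 min, then His-LCK with 1 mM ATP (2× mixture) added for 90 min at room temperature. Ubiquitination detected by TR-FRET using HA-ubiquitin/UBE2D2 adduct, anti-HA-D2 and streptavidin-Eu; IC50 normalised to no-LCK and DMSO controls.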
On the technique in general: In TR-FRET formats the signal depends on donor and acceptor labels being close together.

For the next experiment, the target named is c-Cbl (Homo sapiens (Human), UniProt P22681). Nature of the experiment: C-Cbl LCK Ub TR-FRET assay (c-cbl Lck HTRF). The note with it: for (fold-selectivity): C-cbl Lck HTRF IC50 relative to Cbl-b Lck HTRF IC50. It is filed as biochemical. Summed up:
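Signal is read once the detection mix has stood 20 min at ambient temperature. Curves are anchored by DMSO as maximum and by omission of LCK as minimum.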

Counter-ions that a name gives are not always drawn.

By IC50 is commonly meant the midpoint of a concentration-inhibition curve.

Chain of c-Cbl (P22681 47-435): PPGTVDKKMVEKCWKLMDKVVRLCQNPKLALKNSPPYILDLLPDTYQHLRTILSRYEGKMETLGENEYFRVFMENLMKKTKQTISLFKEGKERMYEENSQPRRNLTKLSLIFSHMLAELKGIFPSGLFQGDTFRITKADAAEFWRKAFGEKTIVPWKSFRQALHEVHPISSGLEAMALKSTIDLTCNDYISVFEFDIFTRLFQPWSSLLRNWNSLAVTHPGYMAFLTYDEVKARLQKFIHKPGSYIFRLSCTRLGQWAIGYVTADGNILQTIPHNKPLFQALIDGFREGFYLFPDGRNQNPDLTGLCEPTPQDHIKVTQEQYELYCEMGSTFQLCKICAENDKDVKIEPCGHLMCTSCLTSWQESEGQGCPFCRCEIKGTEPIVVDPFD
Chain of Cbl-b (Q13191 40-426): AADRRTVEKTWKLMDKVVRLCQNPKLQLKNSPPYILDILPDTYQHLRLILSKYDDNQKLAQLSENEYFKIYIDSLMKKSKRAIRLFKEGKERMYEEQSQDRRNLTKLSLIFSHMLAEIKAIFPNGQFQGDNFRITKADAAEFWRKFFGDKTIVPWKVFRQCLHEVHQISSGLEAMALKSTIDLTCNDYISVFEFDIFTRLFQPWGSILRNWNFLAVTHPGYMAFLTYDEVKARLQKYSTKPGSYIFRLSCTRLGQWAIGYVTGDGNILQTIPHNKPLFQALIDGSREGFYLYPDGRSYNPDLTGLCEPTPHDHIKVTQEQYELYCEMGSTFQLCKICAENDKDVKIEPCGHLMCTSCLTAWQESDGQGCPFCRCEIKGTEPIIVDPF

For `Cn1cnnc1CC1(c2cccc(N3Cc4c(cc(CN5CCC[C@@](C)(O)C5)cc4C(F)(F)F)C3=O)c2)CC(F)(F)C1` [Compound 441, (R)-2-(3-(3,3-difluoro-1-((4-methyl-4H-1,2,4-triazol-3-yl)methyl)cyclobutyl)phenyl)-6-((3-hydroxy-3-methylpiperidin-1-yl)methyl)-4-(trifluoromethyl)isoindolin-1-one], the IC50 amounted to 42 nM at Cbl-b and 23 nM against c-Cbl. For the same compound, at c-Cbl, the “(fold-selectivity)” value is given as “(0.56x)”.
With `CN1CC(Cc2cc3c(c(C(F)(F)F)c2)CN(c2cccc(C4(Cc5nncn5C)CC(F)(F)C4)c2)C3=O)C1` [Compound 442, 2-(3-(3,3-difluoro-1-((4-methyl-4H-1,2,4-triazol-3-yl)methyl)cyclobutyl)phenyl)-6-((1-methylazetidin-3-yl)methyl)-4-(trifluoromethyl)isoindolin-1-one formate], the IC50 against Cbl-b amounted to 96 nM; at c-Cbl, 64 nM.
Regarding `CO[C@H]1CCCN(Cc2cc3c(c(C(F)(F)F)c2)CN(c2cccc(C4(Cc5nncn5C)CC(F)(F)C4)c2)C3=O)C1` [Compound 443, (S)-2-(3-(3,3-difluoro-1-((4-methyl-4H-1,2,4-triazol-3-yl)methyl)cyclobutyl)phenyl)-6-((3-methoxypiperidin-1-yl)methyl)-4-(trifluoromethyl)isoindolin-1-one], the IC50 at Cbl-b came out at 59 nM. Moreover, on c-Cbl, the IC50 amounted to 180 nM and the “(fold-selectivity)” value was “(2.8x)”.
In turn, `CN1CCN(Cc2cc3c(c(C(F)(F)F)c2)CN(c2cccc(C4(Cc5nncn5C)CC(F)(F)C4)c2)C3=O)C(=O)C1` [Compound 444, 2-(3-(3,3-difluoro-1-((4-methyl-4H-1,2,4-triazol-3-yl)methyl)cyclobutyl)phenyl)-6-((4-methyl-2-oxopiperazin-1-yl)methyl)-4-(trifluoromethyl)isoindolin-1-one] had an IC50 on Cbl-b of 170 nM. Moreover, on c-Cbl, the IC50 was found to be 180 nM and the “(fold-selectivity)” value is reported as “(1.1x)”.
`CCCNCc1cc2c(c(C(F)(F)F)c1)CN(c1cccc(C3([C@@H](F)c4nncn4C)CC(F)(F)C3)c1)C2=O` [Compound 445, (R)-2-(3-(3,3-difluoro-1-(fluoro(4-methyl-4H-1,2,4-triazol-3-yl)methyl)cyclobutyl)phenyl)-6-((propylamino)methyl)-4-(trifluoromethyl)isoindolin-1-one] gave an IC50 against Cbl-b of 26 nM. At c-Cbl, the IC50 was determined as 33 nM and the “(fold-selectivity)” value is “(1.3x)”.
The corresponding values for `CCCNCc1cc2c(c(C(F)(F)F)c1)CN(c1cccc(C3([C@H](F)c4nncn4C)CC(F)(F)C3)c1)C2=O` [Compound 446, (S)-2-(3-(3,3-difluoro-1-(fluoro(4-methyl-4H-1,2,4-triazol-3-yl)methyl)cyclobutyl)phenyl)-6-((propylamino)methyl)-4-(trifluoromethyl)isoindolin-1-one] are 26 nM, 29 nM and “(1.3x)”.
As to `Cn1cnnc1[C@H](F)C1(c2cccc(N3Cc4c(cc(CNCCCF)cc4C(F)(F)F)C3=O)c2)CC(F)(F)C1` [Compound 447, (R)-2-(3-(3,3-difluoro-1-(fluoro(4-methyl-4H-1,2,4-triazol-3-yl)methyl)cyclobutyl)phenyl)-6-(((3-fluoropropyl)amino)methyl)-4-(trifluoromethyl)isoindolin-1-one], the IC50 against Cbl-b is 16 nM; against c-Cbl it was 20 nM. Moreover, the “(fold-selectivity)” value at c-Cbl is “(1.2x)”.
As to `Cn1cnnc1[C@@H](F)C1(c2cccc(N3Cc4c(cc(CNCCCF)cc4C(F)(F)F)C3=O)c2)CC(F)(F)C1` [Compound 448, (S)-2-(3-(3,3-difluoro-1-(fluoro(4-methyl-4H-1,2,4-triazol-3-yl)methyl)cyclobutyl)phenyl)-6-(((3-fluoropropyl)amino)methyl)-4-(trifluoromethyl)isoindolin-1-one], the IC50 on Cbl-b amounted to 14 nM. In addition, at c-Cbl, the concentration for half-maximal inhibition (IC50) is 16 nM and the “(fold-selectivity)” value is on record as “(1.1x)”.
Take `Cn1cnnc1[C@H](F)C1(c2cccc(N3Cc4c(cc(CNCC5CC5)cc4C(F)(F)F)C3=O)c2)CC(F)(F)C1` [Compound 449, (R)-6-(((cyclopropylmethyl)amino)methyl)-2-(3-(3,3-difluoro-1-(fluoro(4-methyl-4H-1,2,4-triazol-3-yl)methyl)cyclobutyl)phenyl)-4-(trifluoromethyl)isoindolin-1-one]: the IC50 against Cbl-b was found to be 20 nM. On c-Cbl, the IC50 is 21 nM and the “(fold-selectivity)” value is reported as “(1.1x)”.
The compound `Cn1cnnc1[C@@H](F)C1(c2cccc(N3Cc4c(cc(CNCC5CC5)cc4C(F)(F)F)C3=O)c2)CC(F)(F)C1` [Compound 450, (S)-6-(((cyclopropylmethyl)amino)methyl)-2-(3-(3,3-difluoro-1-(fluoro(4-methyl-4H-1,2,4-triazol-3-yl)methyl)cyclobutyl)phenyl)-4-(trifluoromethyl)isoindolin-1-one] gave an IC50 against Cbl-b of 15 nM. Further, at c-Cbl, the half-maximal inhibitory concentration (IC50) was 14 nM and the “(fold-selectivity)” value is “(0.95x)”.
`CC(C)CNCc1cc2c(c(C(F)(F)F)c1)CN(c1cccc(C3([C@@H](F)c4nncn4C)CC(F)(F)C3)c1)C2=O` [Compound 451, (R)-2-(3-(3,3-difluoro-1-(fluoro(4-methyl-4H-1,2,4-triazol-3-yl)methyl)cyclobutyl)phenyl)-6-((isobutylamino)methyl)-4-(trifluoromethyl)isoindolin-1-one] displayed an IC50 on Cbl-b of 15 nM. Further, at c-Cbl, the IC50 stood at 10 nM and the “(fold-selectivity)” value is recorded as “(0.71x)”.
Compound `CC(C)CNCc1cc2c(c(C(F)(F)F)c1)CN(c1cccc(C3([C@H](F)c4nncn4C)CC(F)(F)C3)c1)C2=O` [Compound 452, (S)-2-(3-(3,3-difluoro-1-(fluoro(4-methyl-4H-1,2,4-triazol-3-yl)methyl)cyclobutyl)phenyl)-6-((isobutylamino)methyl)-4-(trifluoromethyl)isoindolin-1-one] had an IC50 on Cbl-b of 12 nM. At c-Cbl, the concentration for half-maximal inhibition (IC50) was determined as 9.1 nM and the “(fold-selectivity)” value was “(0.78x)”.
Turning to `Cn1cnnc1CC1(c2cccc(N3Cc4c(cc([C@@H](N)C5CC5)cc4C(F)(F)F)C3=O)c2)CC(F)(F)C1` [Compound 453, (S)-6-(amino(cyclopropyl)methyl)-2-(3-(3,3-difluoro-1-((4-methyl-4H-1,2,4-triazol-3-yl)methyl)cyclobutyl)phenyl)-4-(trifluoromethyl)isoindolin-1-one], the figures for the IC50 against Cbl-b and against c-Cbl were 14 nM and 18 nM, respectively. Moreover, the “(fold-selectivity)” value on c-Cbl is recorded as “(1.4x)”.
Compound `CC(C)[C@H]1CN(C)CCN1Cc1cc2c(c(C(F)(F)F)c1)CN(c1cccc(C3([C@@H](F)c4nncn4C4CCCCC4)COC3)c1)C2=O` [Compound 454, 2-(3-(3-((R)-(4-cyclohexyl-4H-1,2,4-triazol-3-yl)fluoromethyl)oxetan-3-yl)phenyl)-6-(((S)-2-isopropyl-4-methylpiperazin-1-yl)methyl)-4-(trifluoromethyl)isoindolin-1-one] returned an IC50 against Cbl-b of 11000 nM. For the same compound, at c-Cbl, the IC50 amounted to 6200 nM and the “(fold-selectivity)” value is “(0.57x)”.

For the origin of these results see US20250230147A1, “LACTAMS AS CBL-B INHIBITORS” (Genentech, Inc., priority 2021, published 2025).
